Laboratory results: patent US20110092476A1, “Bicycloheteroaryl compounds as P2X7 modulators and uses thereof” (Renovis, Inc., priority 2006, published 2011)

The molecules below were run against T1, P2X7 receptor (Homo sapiens, UniProt Q99572) (assay: IL-1β release assay in differentiated THP-1 cells stimulated with BzATP (Example 9)). Conditions: 0.1 μM compound (symbols *); differentiated THP-1 cells, BzATP 250 uM; read-out: IL-1β % Inhib. @ 0.3 or 0.1 uM.
T1 construct: host or cells: THP-1 cells differentiated with LPS and IFN-γ
T1 sequence (Q99572 1-595): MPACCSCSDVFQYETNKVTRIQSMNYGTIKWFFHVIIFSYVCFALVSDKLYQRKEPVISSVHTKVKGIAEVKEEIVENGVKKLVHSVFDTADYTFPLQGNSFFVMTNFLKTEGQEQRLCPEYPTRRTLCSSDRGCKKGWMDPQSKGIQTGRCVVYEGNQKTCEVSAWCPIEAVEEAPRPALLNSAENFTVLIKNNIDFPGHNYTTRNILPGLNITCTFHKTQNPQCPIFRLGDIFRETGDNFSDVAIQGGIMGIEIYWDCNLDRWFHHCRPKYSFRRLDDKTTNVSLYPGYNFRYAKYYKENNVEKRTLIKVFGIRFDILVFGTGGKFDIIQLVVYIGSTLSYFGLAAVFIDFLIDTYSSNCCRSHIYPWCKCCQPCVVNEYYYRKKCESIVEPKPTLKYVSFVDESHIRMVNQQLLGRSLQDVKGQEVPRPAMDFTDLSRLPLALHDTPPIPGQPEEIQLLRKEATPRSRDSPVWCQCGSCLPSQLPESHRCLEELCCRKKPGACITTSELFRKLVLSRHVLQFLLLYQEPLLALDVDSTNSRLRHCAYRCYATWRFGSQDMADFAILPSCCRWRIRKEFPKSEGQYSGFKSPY
Assay type: cell-based
Method in brief: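 IC50 derived by four-parameter logistic fit of percent inhibition of IL-1β release (ELISA, background-adjusted). Release triggered by 45 min BzATP at 250 uM final after 30 min compound pretreatment of THP-1 cells previously differentiated 16 h (LPS, IFN-γ, 100 ng/mL each) and re-primed 2 h with LPS.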

Row | inhibition at 0.1 µM [%] | Compound
1 | 0 to 25 | CC(O)Cn1ccc2c(NC(=O)c3ccccc3Cl)cccc2c1=O (stereo not shown) [Compound 136]
2 | 26 to 50 | CC(O)Cn1ccc2c(NC(=O)CCc3ccccc3Cl)cccc2c1=O (stereo not shown) [Compound 133]
3 | 0 to 25 | CC(O)Cn1ccc2c(NC(=O)Cc3ccccc3F)cccc2c1=O (stereo not shown) [Compound 153]
4 | 26 to 50 | Cc1c(Cl)cccc1C(=O)Nc1cccc2c(=O)n(C(C)CO)ccc12 (stereo not shown) [Compound 118]
5 | 0 to 25 | COc1cccc(CCC(=O)Nc2cccc3c(=O)n(CC(C)O)ccc23)c1 (stereo not shown) [Compound 128]
6 | 0 to 25 | CC(O)Cn1ccc2c(NC(=O)c3ccc(-c4ccccc4)cc3)cccc2c1=O (stereo not shown) [Compound 146]
7 | 0 to 25 | Cc1cccc(C(=O)Nc2cccc3c(=O)n(C(C)CO)ccc23)c1C (stereo not shown) [Compound 98]
8 | 0 to 25 | COc1cc(OC)cc(C(=O)Nc2cccc3c(=O)n(CC(C)O)ccc23)c1 (stereo not shown) [Compound 143]
9 | 26 to 50 | CC(C(=O)Nc1cccc2c(=O)n(CC3(O)CCCCC3)ccc12)c1ccccc1 (stereo not shown) [Compound 24]
10 | 26 to 50 | Cc1ccccc1CCC(=O)Nc1cccc2c(=O)n(CC(C)O)ccc12 (stereo not shown) [Compound 126]
11 | 0 to 25 | Cc1ccc(C(=O)Nc2cccc3c(=O)n(C(C)CO)ccc23)c(C)c1 (stereo not shown) [Compound 99]
12 | 0 to 25 | CC(C)(O)Cn1ccc2c(NC(=O)c3ccc(-c4ccccc4)o3)cccc2c1=O [Compound 188]
13 | 0 to 25 | Cc1ccc(C(=O)Nc2cccc3c(=O)n(CC(C)O)ccc23)c(C)c1 (stereo not shown) [Compound 141]
14 | 0 to 25 | CC(CO)n1ccc2c(NC(=O)c3cccc4ccccc34)cccc2c1=O (stereo not shown) [Compound 106]
15 | 0 to 25 | CC(C(=O)Nc1cccc2c(=O)n(C(C)CO)ccc12)c1ccccc1 (stereo not shown) [Compound 103]
16 | 26 to 50 | Cc1ccccc1C(=O)Nc1cccc2c(=O)n(CC(C)O)ccc12 (stereo not shown) [Compound 139]
17 | 0 to 25 | CC(O)Cn1ccc2c(NC(=O)Cc3ccccc3Cl)cccc2c1=O (stereo not shown) [Compound 154]
18 | 26 to 50 | Cc1cc(C)cc(CC(=O)Nc2cccc3c(=O)n(CC(C)O)ccc23)c1 (stereo not shown) [Compound 173]
19 | 0 to 25 | COc1cccc(CCC(=O)Nc2cccc3c(=O)n(C(C)CO)ccc23)c1 (stereo not shown) [Compound 91]
20 | 26 to 50 | CC(O)Cn1ccc2c(NC(=O)c3cccc4c3OCCO4)cccc2c1=O (stereo not shown) [Compound 170]
21 | 0 to 25 | Cc1ccc(CCC(=O)Nc2cccc3c(=O)n(CC(C)O)ccc23)c(C)c1 (stereo not shown) [Compound 184]
22 | 0 to 25 | COc1cccc(CCC(=O)Nc2cccc3c(=O)n(CC4(O)CCCCC4)ccc23)c1 [Compound 10]
23 | 0 to 25 | Cc1ccc(C(=O)Nc2cccc3c(=O)n(C(C)CO)ccc23)cc1Cl (stereo not shown) [Compound 115]
24 | 0 to 25 | Cc1ccc(C)c(C(=O)Nc2cccc3c(=O)n(CC(C)O)ccc23)c1 (stereo not shown) [Compound 142]

Same assay, conditions: 0.1 μM compound; differentiated THP-1 cells, BzATP 250 uM; "*" symbols; read-out: IL-1β % Inhib. @ 0.3 or 0.1 uM

Row | inhibition at 0.1 µM [%] | Compound
25 | 26 to 50 | CC(C)(O)Cn1ccc2c(NC(=O)Cc3csc4ccccc34)cccc2c1=O [Compound 224]
26 | 0 to 25 | COc1ccc(CC(=O)Nc2cccc3c(=O)n(CC(C)(C)O)ccc23)cc1 [Compound 214]
27 | 26 to 50 | CCOc1ccc(CC(=O)Nc2cccc3c(=O)n(CC(C)(C)O)ccc23)cc1 [Compound 215]

The next lines start with the molecule.

Row | Compound | inhibition at 0.1 µM [%]
28 | CC(C)(O)Cn1ccc2c(NC(=O)c3cccc4ccccc34)cccc2c1=O [Compound 204] | 0 to 25
29 | Cc1cccc(CC(=O)Nc2cccc3c(=O)n(CC(C)(C)O)ccc23)c1 [Compound 213] | 0 to 25
30 | Cc1ccc(C(=O)Nc2cccc3c(=O)n(CC(C)(C)O)ccc23)c(C)c1 [Compound 201] | 0 to 25
31 | Cc1ccccc1C(=O)Nc1cccc2c(=O)n(CC(C)(C)O)ccc12 [Compound 200] | 0 to 25

Same assay, conditions: 0.3 μM compound (symbols +); differentiated THP-1 cells, BzATP 250 uM; read-out: IL-1β % Inhib. @ 0.3 or 0.1 uM

Row | inhibition at 0.3 µM [%] | Compound
32 | 0 to 25 | O=C(Cc1ccccc1F)Nc1cccc2c(=O)n(CC3(O)CCCCC3)ccc12 [Compound 28]
33 | 0 to 25 | O=C(Cc1cccc2ccccc12)Nc1cccc2c(=O)n(CC3(O)CCCCC3)ccc12 [Compound 26]
34 | 0 to 25 | COc1ccc(CC(=O)Nc2cccc3c(=O)n(CC4(O)CCCCC4)ccc23)c(OC)c1 [Compound 47]
35 | 0 to 25 | O=C(Nc1cccc2c(=O)n(CCO)ccc12)C1(c2ccc(Cl)cc2)CCCC1 [Compound 79]
36 | 0 to 25 | CS(=O)(=O)c1ccc(CC(=O)Nc2cccc3c(=O)n(CCO)ccc23)cc1 [Compound 72]
37 | 0 to 25 | COc1ccc(OC)c(CC(=O)Nc2cccc3c(=O)n(CCO)ccc23)c1 [Compound 77]
38 | 0 to 25 | Cc1cccc(C(=O)Nc2cccc3c(=O)n(CC4(O)CCCCC4)ccc23)c1Cl [Compound 55]

Same assay, conditions: 0.3 μM compound; differentiated THP-1 cells, BzATP 250 uM; "+" symbols; read-out: IL-1β % Inhib. @ 0.3 or 0.1 uM

Row | inhibition at 0.3 µM [%] | Compound
39 | 51 to 75 | C[C@@H](CO)n1ccc2c(NC(=O)Cc3ccc(Cl)cc3F)cccc2c1=O [Compound 328]
40 | > 76 | C[C@@H](C(N)=O)n1ccc2c(NC(=O)Cc3ccc(F)c(Cl)c3)cccc2c1=O [Compound 346]
41 | 51 to 75 | CC(C)[C@H](C(=O)O)n1ccc2c(NC(=O)[C@@H](C)c3ccc(Cl)cc3)cccc2c1=O [Compound 323, (R)-2-{5-[(S)-2-(4-Chloro-phenyl)-propionylamino]-1-oxo-1H-isoquinolin-2-yl}-3-methyl-butyric acid]
42 | > 76 | CNC(=O)[C@@H](C(C)C)n1ccc2c(NC(=O)[C@H](C)c3ccc(Cl)cc3)cccc2c1=O [Compound 277]
43 | > 76 | O=C(Cc1ccc(Cl)c(C(F)(F)F)c1)Nc1cccc2c(=O)n(C[C@H]3CCCN3)ccc12 [Compound 243]
44 | 0 to 25 | O=C(Cc1cccc(C(F)(F)F)c1F)Nc1c(NCCO)ccc2c(=O)n(CCO)ccc12 [Compound 385, 2-(2-Fluoro-3-trifluoromethyl-phenyl)-N-[2-(2-hydroxy-ethyl)-6-(2-hydroxy-ethylamino)-1-oxo-1,2-dihydro-isoquinolin-5-yl]-acetamide]
45 | > 76 | C[C@H](C(N)=O)n1ccc2c(NC(=O)Cc3ccc(Cl)cc3Cl)cccc2c1=O [Compound 314]
46 | > 76 | C[C@@H](C(N)=O)n1ccc2c(NC(=O)Cc3ccc(Cl)cc3F)cccc2c1=O [Compound 350]
47 | > 76 | C[C@H](C(N)=O)n1ccc2c(NC(=O)Cc3ccc(F)c(F)c3)cccc2c1=O [Compound 303]
48 | > 76 | CC(C)[C@H](C(=O)NC1CC1)n1ccc2c(NC(=O)[C@@H](C)c3ccc(Cl)cc3)cccc2c1=O [Compound 281, (R)-2-{5-[(S)-2-(4-Chloro-phenyl)-propionylamino]-1-oxo-1H-isoquinolin-2-yl}-N-cyclopropyl-3-methyl-butyramide]
49 | 0 to 25 | CC(C)(CO)n1ccc2c(NC(=O)Cc3ccc(C(F)(F)F)cc3C(F)(F)F)cccc2c1=O [Compound 366]
50 | 51 to 75 | C[C@@H](CO)n1ccc2c(NC(=O)Cc3ccc(F)c(Cl)c3)cccc2c1=O [Compound 331]
51 | 26 to 50 | C[C@H](C(N)=O)n1ccc2c(NC(=O)C(C)(C)c3ccc(Cl)cc3)cccc2c1=O [Compound 264]
52 | > 76 | C[C@H](C(N)=O)n1ccc2c(NC(=O)Cc3ccc(-c4ccccc4)cc3)cccc2c1=O [Compound 289]
53 | > 76 | C[C@H](C(N)=O)n1ccc2c(NC(=O)Cc3cc(F)c(F)cc3F)cccc2c1=O [Compound 305]

Same assay, conditions: THP-1 cells, BzATP 250 uM, IL-1β by ELISA

Row | IC50 [µM] | Compound
54 | > 1 | O=C(Nc1cccc2c(=O)n(CCO)ccc12)C1(c2ccc(Cl)cc2)CCCC1 [Compound 79]
55 | 0.443 | C[C@H](C(N)=O)n1ccc2c(NC(=O)C(C)(C)c3ccc(Cl)cc3)cccc2c1=O [Compound 264]
